What was measured:
[1] = target: T1, PDGFRA_V561D (Homo sapiens, UniProt P16234, V561D); assay: Proqinase Kinase profiling; format: biochemical; conditions: read-out: % inhibition at 100nM
T1 construct: purchased DiscoverX

[2] = target: T2, RPS6KA6 (Homo sapiens, UniProt Q9UK32); assay: Proqinase Kinase profiling; format: biochemical; conditions: read-out: % inhibition at 100nM
T2 construct: purchased DiscoverX

[3] = target: T3, MAPK9 (Homo sapiens, UniProt P45984); assay: Proqinase Kinase profiling; format: biochemical; conditions: read-out: % inhibition at 100nM
T3 construct: purchased DiscoverX
T3 sequence (P45984 whole entry): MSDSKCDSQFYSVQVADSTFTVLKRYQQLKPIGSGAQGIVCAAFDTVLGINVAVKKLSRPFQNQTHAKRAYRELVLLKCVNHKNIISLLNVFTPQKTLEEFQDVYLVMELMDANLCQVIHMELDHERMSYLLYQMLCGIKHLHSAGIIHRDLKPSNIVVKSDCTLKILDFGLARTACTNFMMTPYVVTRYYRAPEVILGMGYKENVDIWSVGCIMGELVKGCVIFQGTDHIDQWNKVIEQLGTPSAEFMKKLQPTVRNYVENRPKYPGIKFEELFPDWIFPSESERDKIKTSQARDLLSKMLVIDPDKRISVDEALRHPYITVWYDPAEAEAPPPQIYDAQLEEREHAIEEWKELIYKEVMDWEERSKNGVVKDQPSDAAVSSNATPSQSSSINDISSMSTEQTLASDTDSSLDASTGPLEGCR

[4] = target: T4, BLK (Homo sapiens, UniProt P51451); assay: Proqinase Kinase profiling; format: biochemical; conditions: read-out: % inhibition at 100nM
T4 construct: purchased DiscoverX

[5] = target: T5, DAPK1 (Homo sapiens, UniProt P53355); assay: Proqinase Kinase profiling; format: biochemical; conditions: read-out: % inhibition at 100nM
T5 construct: purchased DiscoverX

[6] = target: T6, PIM3 (Homo sapiens, UniProt Q86V86); assay: Proqinase Kinase profiling; format: biochemical; conditions: read-out: % inhibition at 100nM
T6 construct: purchased DiscoverX

[7] = target: T7, MARK1 (Homo sapiens, UniProt Q9P0L2); assay: Proqinase Kinase profiling; format: biochemical; conditions: read-out: % inhibition at 100nM
T7 construct: purchased DiscoverX
T7 sequence (Q9P0L2 whole entry): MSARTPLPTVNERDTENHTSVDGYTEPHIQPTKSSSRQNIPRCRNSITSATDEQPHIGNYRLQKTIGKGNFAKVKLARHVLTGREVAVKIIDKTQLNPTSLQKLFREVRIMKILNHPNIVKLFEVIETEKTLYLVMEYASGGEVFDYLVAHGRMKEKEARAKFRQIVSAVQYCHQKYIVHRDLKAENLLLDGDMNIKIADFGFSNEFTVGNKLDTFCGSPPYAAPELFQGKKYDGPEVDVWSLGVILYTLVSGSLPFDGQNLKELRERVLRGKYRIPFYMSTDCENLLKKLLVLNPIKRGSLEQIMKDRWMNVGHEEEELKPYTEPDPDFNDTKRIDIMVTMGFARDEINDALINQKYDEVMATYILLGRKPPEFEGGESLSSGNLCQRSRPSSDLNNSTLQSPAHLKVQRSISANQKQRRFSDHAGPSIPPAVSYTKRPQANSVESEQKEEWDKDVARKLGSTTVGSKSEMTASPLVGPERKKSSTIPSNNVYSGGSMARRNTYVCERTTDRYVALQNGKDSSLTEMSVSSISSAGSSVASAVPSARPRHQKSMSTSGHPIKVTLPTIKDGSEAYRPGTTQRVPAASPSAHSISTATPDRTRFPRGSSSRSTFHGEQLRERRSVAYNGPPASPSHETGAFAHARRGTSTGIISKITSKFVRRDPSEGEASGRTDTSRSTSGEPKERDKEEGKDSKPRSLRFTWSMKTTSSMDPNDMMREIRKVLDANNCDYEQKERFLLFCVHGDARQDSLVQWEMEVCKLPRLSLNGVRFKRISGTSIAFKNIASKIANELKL

[8] = target: T8, MYLK (Homo sapiens, UniProt Q15746); assay: Proqinase Kinase profiling; format: biochemical; conditions: read-out: % inhibition at 100nM
T8 construct: purchased DiscoverX

[9] = target: T9, HIPK3 (Homo sapiens, UniProt Q9H422); assay: Proqinase Kinase profiling; format: biochemical; conditions: read-out: % inhibition at 100nM
T9 construct: purchased DiscoverX

[10] = target: T10, PIM1 (Homo sapiens, UniProt P11309); assay: Proqinase Kinase profiling; format: biochemical; conditions: read-out: % inhibition at 100nM
T10 construct: purchased DiscoverX

[11] = target: T11, PAK4 (Homo sapiens, UniProt O96013); assay: Proqinase Kinase profiling; format: biochemical; conditions: read-out: % inhibition at 100nM
T11 construct: purchased DiscoverX

[12] = target: T12, FGFR3 (Homo sapiens, UniProt P22607); assay: Proqinase Kinase profiling; format: biochemical; conditions: read-out: % inhibition at 100nM
T12 construct: purchased DiscoverX

[13] = target: T13, EPHA3 (Homo sapiens, UniProt P29320); assay: Proqinase Kinase profiling; format: biochemical; conditions: read-out: % inhibition at 100nM
T13 construct: purchased DiscoverX

[14] = target: T14, PRKCD (Homo sapiens, UniProt Q05655); assay: Proqinase Kinase profiling; format: biochemical; conditions: read-out: % inhibition at 100nM
T14 construct: purchased DiscoverX

[15] = target: T15, WT ALK2 receptor (Homo sapiens, UniProt Q04771); assay: BRE-LUC reporter assay in C2C12 cells cotransfected with WT ALK2; format: cell-based; conditions: BMP-6 50 ng/mL 16 hours, 30-min preincubation, read-out: ALK2wt BMP-6 IC50
T15 construct: expressed in transfected cells; host or cells: C2C12 murine myofibroblast cells
T15 sequence (Q04771 21-509): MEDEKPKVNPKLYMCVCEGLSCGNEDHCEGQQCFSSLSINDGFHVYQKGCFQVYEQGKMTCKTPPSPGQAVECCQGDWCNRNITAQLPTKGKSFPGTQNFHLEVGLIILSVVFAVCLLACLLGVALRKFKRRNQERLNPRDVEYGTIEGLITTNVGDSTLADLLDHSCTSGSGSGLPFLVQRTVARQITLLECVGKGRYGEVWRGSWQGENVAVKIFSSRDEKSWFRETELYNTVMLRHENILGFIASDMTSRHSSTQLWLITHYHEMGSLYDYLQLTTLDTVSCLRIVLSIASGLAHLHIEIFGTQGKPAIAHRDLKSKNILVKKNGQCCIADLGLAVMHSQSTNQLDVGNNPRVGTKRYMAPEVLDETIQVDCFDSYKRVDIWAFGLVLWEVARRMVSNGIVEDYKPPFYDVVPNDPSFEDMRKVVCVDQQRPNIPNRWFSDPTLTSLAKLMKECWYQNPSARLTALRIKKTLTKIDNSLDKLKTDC
Method: For luciferase reporter assays, cells were seeded in 24-well plates and transfected with DharmaFECT Duo (Fisher Scientific, Landsmeer, The Netherlands), following the recommendations of the manufacturer. 48 hours after transfection the cells were harvested and lysed. […] Each transfection mixture was equalized with empty vector when necessary and every experiment was performed in triplicate.

[16] = target: T16, EPHA8 (Homo sapiens, UniProt P29322); assay: Proqinase Kinase profiling; format: biochemical; conditions: read-out: % inhibition at 100nM
T16 construct: purchased DiscoverX

[17] = target: T17, NTRK1 (Homo sapiens, UniProt P04629); assay: Proqinase Kinase profiling; format: biochemical; conditions: read-out: % inhibition at 100nM
T17 construct: purchased DiscoverX

[18] = target: T18, MAPK12 (Homo sapiens, UniProt P53778); assay: Proqinase Kinase profiling; format: biochemical; conditions: read-out: % inhibition at 100nM
T18 construct: purchased DiscoverX

[19] = target: T19, TXK (Homo sapiens, UniProt P42681); assay: Proqinase Kinase profiling; format: biochemical; conditions: read-out: % inhibition at 100nM
T19 construct: purchased DiscoverX

[20] = target: T20, RET_E762Q (Homo sapiens, UniProt P07949, E762Q); assay: Proqinase Kinase profiling; format: biochemical; conditions: read-out: % inhibition at 100nM
T20 construct: purchased DiscoverX

[21] = target: T21, KDR (Homo sapiens, UniProt P35968); assay: Proqinase Kinase profiling; format: biochemical; conditions: read-out: % inhibition at 100nM
T21 construct: purchased DiscoverX

[22] = target: T22, ACVR1 (Homo sapiens, UniProt Q04771); assay: Proqinase Kinase profiling; format: biochemical; conditions: read-out: % inhibition at 100nM
T22 construct: purchased DiscoverX
T22 sequence (Q04771 21-509): as above

[23] = tested on: panel of 366–468 kinases; assay: Kinase panel selectivity; format: biochemical; conditions: compound at 100nM
Excerpt: Figure 4 ALK2 binding and kinase profile of OD36 and OD52.

[24] = target: T23, KIT_V559D_T670I (Homo sapiens, UniProt P10721, T670I/V559D); assay: Proqinase Kinase profiling; format: biochemical; conditions: read-out: % inhibition at 100nM
T23 construct: purchased DiscoverX

[25] = target: T24, PRKG1 (Homo sapiens, UniProt Q13976); assay: Proqinase Kinase profiling; format: biochemical; conditions: read-out: % inhibition at 100nM
T24 construct: purchased DiscoverX

[26] = target: T25, AXL (Homo sapiens, UniProt P30530); assay: Proqinase Kinase profiling; format: biochemical; conditions: read-out: % inhibition at 100nM
T25 construct: purchased DiscoverX
T25 sequence (P30530 26-894): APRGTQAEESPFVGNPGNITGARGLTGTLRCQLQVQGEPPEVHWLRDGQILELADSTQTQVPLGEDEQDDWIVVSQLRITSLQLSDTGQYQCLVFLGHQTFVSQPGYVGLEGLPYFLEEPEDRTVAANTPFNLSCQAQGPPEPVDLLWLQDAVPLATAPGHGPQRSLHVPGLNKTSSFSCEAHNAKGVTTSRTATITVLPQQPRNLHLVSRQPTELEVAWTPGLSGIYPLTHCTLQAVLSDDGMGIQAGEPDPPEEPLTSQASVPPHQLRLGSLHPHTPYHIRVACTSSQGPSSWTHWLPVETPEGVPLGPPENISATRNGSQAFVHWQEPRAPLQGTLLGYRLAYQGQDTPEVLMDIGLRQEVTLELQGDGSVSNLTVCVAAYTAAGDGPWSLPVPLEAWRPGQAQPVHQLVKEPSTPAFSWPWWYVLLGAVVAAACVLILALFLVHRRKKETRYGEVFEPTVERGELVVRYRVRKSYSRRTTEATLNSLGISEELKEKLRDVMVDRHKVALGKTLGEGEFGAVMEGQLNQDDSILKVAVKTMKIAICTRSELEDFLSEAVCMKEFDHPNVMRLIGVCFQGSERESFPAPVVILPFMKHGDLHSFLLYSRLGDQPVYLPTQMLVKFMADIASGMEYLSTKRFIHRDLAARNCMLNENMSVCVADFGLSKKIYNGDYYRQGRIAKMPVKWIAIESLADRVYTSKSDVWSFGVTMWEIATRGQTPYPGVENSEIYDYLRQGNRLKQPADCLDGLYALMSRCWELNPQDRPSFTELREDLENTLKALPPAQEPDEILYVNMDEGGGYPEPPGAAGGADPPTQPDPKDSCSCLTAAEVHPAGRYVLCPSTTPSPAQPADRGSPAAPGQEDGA

[27] = target: T26, KIT_D816H (Homo sapiens, UniProt P10721, D816H); assay: Proqinase Kinase profiling; format: biochemical; conditions: read-out: % inhibition at 100nM
T26 construct: purchased DiscoverX

[28] = target: T27, RPS6KA2 (Homo sapiens, UniProt Q15349); assay: Proqinase Kinase profiling; format: biochemical; conditions: read-out: % inhibition at 100nM
T27 construct: purchased DiscoverX

[29] = target: T28, BRSK1 (Homo sapiens, UniProt Q8TDC3); assay: Proqinase Kinase profiling; format: biochemical; conditions: read-out: % inhibition at 100nM
T28 construct: purchased DiscoverX

[30] = target: T29, ALK (Homo sapiens, UniProt Q9UM73); assay: Proqinase Kinase profiling; format: biochemical; conditions: read-out: % inhibition at 100nM
T29 construct: purchased DiscoverX

[31] = target: T30, MYLK3 (Homo sapiens, UniProt Q32MK0); assay: Proqinase Kinase profiling; format: biochemical; conditions: read-out: % inhibition at 100nM
T30 construct: purchased DiscoverX
T30 sequence (Q32MK0 whole entry): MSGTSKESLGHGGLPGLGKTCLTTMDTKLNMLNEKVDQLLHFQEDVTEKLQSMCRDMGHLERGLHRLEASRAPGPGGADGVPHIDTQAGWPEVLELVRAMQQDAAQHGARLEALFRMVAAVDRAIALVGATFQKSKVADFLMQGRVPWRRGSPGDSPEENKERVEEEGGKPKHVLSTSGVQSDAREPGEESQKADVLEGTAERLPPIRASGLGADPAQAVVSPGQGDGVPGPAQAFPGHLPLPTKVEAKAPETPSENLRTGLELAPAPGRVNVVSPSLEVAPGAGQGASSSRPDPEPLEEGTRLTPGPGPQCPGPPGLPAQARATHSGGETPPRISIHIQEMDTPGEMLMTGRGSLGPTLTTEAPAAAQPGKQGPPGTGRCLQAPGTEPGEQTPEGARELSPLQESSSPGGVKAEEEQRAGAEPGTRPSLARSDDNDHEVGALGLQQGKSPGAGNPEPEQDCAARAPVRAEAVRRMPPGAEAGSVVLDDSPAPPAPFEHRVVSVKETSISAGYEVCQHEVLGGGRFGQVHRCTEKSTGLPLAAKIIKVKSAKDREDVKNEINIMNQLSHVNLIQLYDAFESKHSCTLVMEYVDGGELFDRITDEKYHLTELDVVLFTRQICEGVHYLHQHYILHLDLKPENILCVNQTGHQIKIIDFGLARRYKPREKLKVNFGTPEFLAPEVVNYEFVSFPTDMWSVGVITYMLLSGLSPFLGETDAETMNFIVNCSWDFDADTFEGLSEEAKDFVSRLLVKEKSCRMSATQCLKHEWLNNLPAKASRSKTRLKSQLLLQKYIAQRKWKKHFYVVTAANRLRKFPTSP

[32] = target: T31, KIT_A829P (Homo sapiens, UniProt P10721, A829P); assay: Proqinase Kinase profiling; format: biochemical; conditions: read-out: % inhibition at 100nM
T31 construct: purchased DiscoverX

[33] = target: T32, PDK1 (Homo sapiens, UniProt O15530); assay: Proqinase Kinase profiling; format: biochemical; conditions: read-out: % inhibition at 100nM
T32 construct: purchased DiscoverX
T32 sequence (O15530 whole entry): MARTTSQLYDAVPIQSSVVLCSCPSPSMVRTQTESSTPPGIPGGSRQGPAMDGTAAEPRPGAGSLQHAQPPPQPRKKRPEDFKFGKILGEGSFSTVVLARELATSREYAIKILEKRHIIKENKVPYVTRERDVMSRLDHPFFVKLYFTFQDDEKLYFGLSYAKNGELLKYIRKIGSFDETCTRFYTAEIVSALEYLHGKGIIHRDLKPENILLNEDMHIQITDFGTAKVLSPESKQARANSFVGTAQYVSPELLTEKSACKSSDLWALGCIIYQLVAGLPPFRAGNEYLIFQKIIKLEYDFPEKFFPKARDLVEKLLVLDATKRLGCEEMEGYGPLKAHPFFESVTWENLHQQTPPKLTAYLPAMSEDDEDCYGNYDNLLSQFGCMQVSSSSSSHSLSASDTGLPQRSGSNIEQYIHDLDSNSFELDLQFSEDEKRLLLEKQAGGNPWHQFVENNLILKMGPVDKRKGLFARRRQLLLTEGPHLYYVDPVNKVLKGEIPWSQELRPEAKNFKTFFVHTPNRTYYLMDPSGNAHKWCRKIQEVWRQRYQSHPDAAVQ

[34] = target: T33, MST4 (Homo sapiens, UniProt Q9P289); assay: Proqinase Kinase profiling; format: biochemical; conditions: read-out: % inhibition at 100nM
T33 construct: purchased DiscoverX

[35] = target: T34, NEK7 (Homo sapiens, UniProt Q8TDX7); assay: Proqinase Kinase profiling; format: biochemical; conditions: read-out: % inhibition at 100nM
T34 construct: purchased DiscoverX
T34 sequence (Q8TDX7 whole entry): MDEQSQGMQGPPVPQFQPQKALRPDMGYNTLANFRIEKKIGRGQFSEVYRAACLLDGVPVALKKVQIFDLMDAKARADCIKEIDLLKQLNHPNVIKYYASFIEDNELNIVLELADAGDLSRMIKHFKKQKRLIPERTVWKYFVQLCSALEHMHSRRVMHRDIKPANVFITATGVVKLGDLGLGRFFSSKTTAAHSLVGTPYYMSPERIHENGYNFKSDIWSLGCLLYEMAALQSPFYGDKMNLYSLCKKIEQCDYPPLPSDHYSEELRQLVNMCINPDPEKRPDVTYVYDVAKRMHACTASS

[36] = target: T35, MET_Y1230C (Homo sapiens, UniProt P08581, Y1230C); assay: Proqinase Kinase profiling; format: biochemical; conditions: read-out: % inhibition at 100nM
T35 construct: purchased DiscoverX

[37] = target: T36, JAK2 (Homo sapiens, UniProt O60674); assay: Proqinase Kinase profiling; format: biochemical; conditions: read-out: % inhibition at 100nM
T36 construct: purchased DiscoverX

[38] = target: T37, PRKCB1_II (Homo sapiens, UniProt P05771); assay: Proqinase Kinase profiling; format: biochemical; conditions: read-out: % inhibition at 100nM
T37 construct: purchased DiscoverX

[39] = target: T38, HCK (Homo sapiens, UniProt P08631); assay: Proqinase Kinase profiling; format: biochemical; conditions: read-out: % inhibition at 100nM
T38 construct: purchased DiscoverX

[40] = target: T39, CSNK1E (Homo sapiens, UniProt P49674); assay: Proqinase Kinase profiling; format: biochemical; conditions: read-out: % inhibition at 100nM
T39 construct: purchased DiscoverX

T2 sequence (Q9UK32 whole entry): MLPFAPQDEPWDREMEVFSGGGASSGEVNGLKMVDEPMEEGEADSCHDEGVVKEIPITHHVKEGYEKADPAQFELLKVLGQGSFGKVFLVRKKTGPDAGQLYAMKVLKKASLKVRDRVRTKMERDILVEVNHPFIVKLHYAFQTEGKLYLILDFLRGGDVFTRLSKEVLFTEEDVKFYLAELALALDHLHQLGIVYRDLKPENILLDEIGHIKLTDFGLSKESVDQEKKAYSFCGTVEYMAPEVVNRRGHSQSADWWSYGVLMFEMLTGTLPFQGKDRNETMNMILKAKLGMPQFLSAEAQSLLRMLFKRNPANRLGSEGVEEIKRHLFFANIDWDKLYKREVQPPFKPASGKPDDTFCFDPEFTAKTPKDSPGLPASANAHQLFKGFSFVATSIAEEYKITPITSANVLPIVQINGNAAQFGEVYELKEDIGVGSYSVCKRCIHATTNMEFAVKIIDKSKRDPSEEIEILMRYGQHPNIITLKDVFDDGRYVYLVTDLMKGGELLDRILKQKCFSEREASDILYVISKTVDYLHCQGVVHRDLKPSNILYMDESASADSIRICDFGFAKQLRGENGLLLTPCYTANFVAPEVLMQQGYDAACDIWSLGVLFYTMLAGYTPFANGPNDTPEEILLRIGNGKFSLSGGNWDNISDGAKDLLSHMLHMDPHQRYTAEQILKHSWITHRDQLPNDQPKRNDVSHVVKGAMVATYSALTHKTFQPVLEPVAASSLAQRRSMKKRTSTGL

Row | SMILES | inhibition at 0.1 µM [1] | inhibition at 0.1 µM [2] | inhibition at 0.1 µM [3] | inhibition at 0.1 µM [4] | inhibition at 0.1 µM [5] | inhibition at 0.1 µM [6] | inhibition at 0.1 µM [7] | inhibition at 0.1 µM [8] | inhibition at 0.1 µM [9] | inhibition at 0.1 µM [10] | inhibition at 0.1 µM [11] | inhibition at 0.1 µM [12] | inhibition at 0.1 µM [13] | inhibition at 0.1 µM [14] | IC50 [15] | inhibition at 0.1 µM [16] | inhibition at 0.1 µM [17] | inhibition at 0.1 µM [18] | inhibition at 0.1 µM [19] | inhibition at 0.1 µM [20] | other results
1 | Clc1cc2cc(c1)-c1cnn3ccc(nc13)NCCOCCO2 [OD36] | -1% | 8% | 12% | 35% | 12% | 25% | 11% | 12% | 12% | 29% | -3% | 7% | 12% | 4% | 308 nM | 11% | 14% | 24% | 37% | 33% | inhibition at 0.1 µM [21]: 32%; inhibition at 0.1 µM [22]: 95%; Selectivity: % of tested kinases inhibited over 50% [23]: 4.3%; inhibition at 0.1 µM [24]: 7%; inhibition at 0.1 µM [25]: 3%; inhibition at 0.1 µM [26]: 10%; inhibition at 0.1 µM [27]: 32%; inhibition at 0.1 µM [28]: 7%; inhibition at 0.1 µM [29]: 8%; inhibition at 0.1 µM [30]: 6%; inhibition at 0.1 µM [31]: 15%; inhibition at 0.1 µM [32]: 17%; inhibition at 0.1 µM [33]: 4%; inhibition at 0.1 µM [34]: 3%; inhibition at 0.1 µM [35]: 5%; inhibition at 0.1 µM [36]: 7%; inhibition at 0.1 µM [37]: 7%; inhibition at 0.1 µM [38]: -5%; inhibition at 0.1 µM [39]: 29%; inhibition at 0.1 µM [40]: 6%
2 | Cc1cc2cc(c1)-c1cnn3ccc(nc13)NCCNC(=O)CCN(C)C2 [OD52] | 12% | 0% | -5% | -6% | 0% | 10% | -9% | 11% | -10% | -3% | 7% | -9% | -20% | 2% | 1570 nM | -6% | 29% | -10% | 25% | 19% | inhibition at 0.1 µM [21]: -14%; inhibition at 0.1 µM [22]: 90%; Selectivity: % of tested kinases inhibited over 50% [23]: 0.9%; inhibition at 0.1 µM [24]: -8%; inhibition at 0.1 µM [25]: -6%; inhibition at 0.1 µM [26]: 10%; inhibition at 0.1 µM [27]: -14%; inhibition at 0.1 µM [28]: -2%; inhibition at 0.1 µM [29]: -1%; inhibition at 0.1 µM [30]: 8%; inhibition at 0.1 µM [31]: 2%; inhibition at 0.1 µM [32]: -10%; inhibition at 0.1 µM [33]: -7%; inhibition at 0.1 µM [34]: -17%; inhibition at 0.1 µM [35]: 5%; inhibition at 0.1 µM [36]: -13%; inhibition at 0.1 µM [37]: 9%; inhibition at 0.1 µM [38]: -7%; inhibition at 0.1 µM [39]: 0%; inhibition at 0.1 µM [40]: 20%

From paper PMC6874179, “Development of Macrocycle Kinase Inhibitors for ALK2 Using Fibrodysplasia Ossificans Progressiva‐Derived Endothelial Cells” (JBMR Plus, 2019)
